Test results: ChEMBL document CHEMBL1201862, “PubChem BioAssay data set” (2004)
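Interpolation was linear, between the two tested concentrations surrounding the appropriate level; five concentrations were tested over 48 hours in 96-well plates. GI50 marks 50% less growth.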 The source made the active and inactive calls. No stated cut-off is given here; in the data, active = GI50 up to about 1.1 µM and inactive = higher.

Experiments:
Assay in all cases: NCI-60 cell line screen, 48 h
[1] = tested on: PC-3
[2] = tested on: SK-MEL-28
[3] = tested on: Hs-578T
[4] = tested on: OVCAR-4
[5] = tested on: MDA-MB-231
[6] = tested on: HCT-116
[7] = tested on: OVCAR-5
[8] = tested on: NCI/ADR-RES
[9] = tested on: KM12
[10] = tested on: SK-MEL-5
[11] = tested on: UACC-62
[12] = tested on: SNB-75
[13] = tested on: IGROV-1
[14] = tested on: RXF 393
[15] = tested on: A549
[16] = tested on: COLO 205
[17] = tested on: MDA-MB-435
[18] = tested on: RPMI-8226
[19] = tested on: 786-0
[20] = tested on: TK-10

Measured: GI50

O=C1C(O)=C(C(CCc2ccccc2)C2=C(O)C(=O)c3ccccc3C2=O)C(=O)c2ccccc21
inactive: [1] 68.7 µM | [2] > 100 µM | [3] 5.32 µM | [4] 67.9 µM | [5] 66.8 µM | [6] 40 µM | [7] > 100 µM | [8] > 100 µM | [9] > 100 µM | [10] 4.08 µM | [11] 13.7 µM | [12] 45.8 µM | [13] 34.6 µM | [14] > 100 µM | [15] 33 µM | [16] 28.4 µM | [17] 13.9 µM | [18] 16.1 µM | [19] > 100 µM | [20] > 100 µM

COc1ccc(C(=O)/C=C2\c3ccccc3C(=O)N2C)cc1
inactive: [1] 89.1 µM | [2] > 100 µM | [3] 90.6 µM | [4] 42.6 µM | [5] > 100 µM | [6] 59.3 µM | [7] > 100 µM | [8] 38 µM | [9] 62.8 µM | [10] 63.4 µM | [11] 41.1 µM | [12] 22.8 µM | [13] 28 µM | [14] 22.9 µM | [15] 58.6 µM | [16] 55 µM | [17] 36.9 µM | [18] 41.5 µM | [19] 92.3 µM | [20] 31.2 µM

CCOC(OCC)C(CCc1ccccc1)c1c(N)nc(N)[nH]c1=O (stereo not drawn)
inactive: [1] 39.3 µM | [2] > 100 µM | [3] > 100 µM | [4] 46.1 µM | [5] > 100 µM | [6] 65.3 µM | [7] 13.5 µM | [8] > 100 µM | [9] 66.4 µM | [10] 47.6 µM | [11] 46.1 µM | [12] > 100 µM | [13] 37.1 µM | [14] 57.7 µM | [15] 54.1 µM | [16] 17.4 µM | [17] 32.4 µM | [18] 38.6 µM | [19] 89.7 µM | [20] 66.2 µM

Cn1c(=O)c2[nH]c(/N=N\n3ccc4ccccc43)nc2n(C)c1=O
inactive: [1] > 100 µM | [2] > 100 µM | [3] > 100 µM | [4] > 100 µM | [5] > 100 µM | [6] > 100 µM | [7] > 100 µM | [8] > 100 µM | [9] > 100 µM | [10] > 100 µM | [11] > 100 µM | [12] > 100 µM | [14] > 100 µM | [15] > 100 µM | [16] > 100 µM | [17] > 100 µM | [18] > 100 µM | [19] > 100 µM | [20] > 100 µM

CCc1nc(N)nc(N)c1-c1ccc2c(c1)nnn2CCc1ccccc1
inactive: [1] 4.63 µM | [2] 31.4 µM | [3] 30.7 µM | [4] 20.8 µM | [5] 26.1 µM | [6] 2.36 µM | [7] > 60.5 µM | [8] 13.7 µM | [9] 14.1 µM | [10] 8.53 µM | [11] 7.01 µM | [12] 15.8 µM | [13] 4.72 µM | [14] 26.4 µM | [15] 3.09 µM | [16] 14.9 µM | [17] 6.52 µM | [18] 13.6 µM | [19] 5.89 µM | [20] 35.4 µM

O=c1ccs[nH]1
inactive: [1] 12.9 µM | [2] 25.1 µM | [3] 22 µM | [4] 16 µM | [5] 14.7 µM | [6] 8.79 µM | [7] 16.3 µM | [8] 17.7 µM | [9] 26.7 µM | [10] 5.78 µM | [11] 16.4 µM | [12] 16.9 µM | [13] 24.2 µM | [14] 7.96 µM | [15] 19.9 µM | [16] 8.91 µM | [17] 13.6 µM | [18] 2.7 µM | [19] 6.15 µM | [20] 13.8 µM

CCN(CC)c1nc(N(C)C)c2ccccc2n1
inactive: [1] 26.4 µM | [2] 31.8 µM | [3] 53.3 µM | [4] 54.1 µM | [5] 72.4 µM | [6] 10.8 µM | [7] 25.5 µM | [8] 22.5 µM | [9] 31.3 µM | [10] 15.1 µM | [11] 14.9 µM | [12] 34.8 µM | [13] 37 µM | [14] 24 µM | [15] 25.8 µM | [16] 19.4 µM | [17] 28.9 µM | [18] 13.2 µM | [19] 27.9 µM | [20] 44.7 µM

COc1ccc(-c2cc(-c3ccco3)c(C#N)c(=S)n2C2OC(COC(C)=O)C(OC(C)=O)C(OC(C)=O)C2OC(C)=O)cc1 (stereo not drawn)
inactive: [1] 4.07 µM | [2] 3.3 µM | [3] 3.15 µM | [4] 2.54 µM | [5] 4.47 µM | [6] 6.79 µM | [7] 15.6 µM | [8] 12.7 µM | [9] 11.9 µM | [10] 10.6 µM | [11] 3.72 µM | [12] 5.85 µM | [13] 13.3 µM | [14] 9.53 µM | [15] 5.9 µM | [16] 4.36 µM | [17] 7.71 µM | [18] 2.96 µM | [19] 3.28 µM | [20] 30.2 µM

NC(=O)c1cc2cc(Cl)cc(Cl)c2o/c1=N\c1ccc(F)cc1
inactive: [1] 19.1 µM | [2] 21.9 µM | [3] 35.1 µM | [4] 23.8 µM | [5] 17.5 µM | [6] 17.3 µM | [7] 19.6 µM | [8] 16 µM | [9] 26.5 µM | [10] 16.9 µM | [11] 23.3 µM | [12] 14.8 µM | [13] 26.4 µM | [14] 16.8 µM | [15] 19.3 µM | [16] 17.5 µM | [17] 20 µM | [18] 26.5 µM | [19] 12.2 µM | [20] 14.3 µM

CSc1ncc2c(n1)-c1ccccc1OC2N1CCCCC1 (stereo not drawn)
inactive: [1] 48.2 µM | [3] 26.9 µM | [4] 28.8 µM | [5] 23 µM | [6] 31 µM | [7] 42 µM | [8] 40.6 µM | [9] 38.5 µM | [10] 20.3 µM | [11] 22.4 µM | [12] 66.5 µM | [13] 40.1 µM | [14] 32.1 µM | [15] 39.4 µM | [16] 44.8 µM | [17] 31.1 µM | [18] 24.4 µM | [19] 29.4 µM | [20] 27.3 µM
